The subject of one test is PC-12. Description: Cytoprotective activity against H2O2-induced cell damage in rat PC12 cells assessed as reduction in cell injury measured after 24 hrs by MTT assay relative to control. The test is classed as functional, cell-based. As to conditions: dose 1-20 µM. Background: Formazan colour is commonly taken as a measure of viable cells.
The subject of test [1] is BV-2. Kind of test: Antiinflammatory activity against LPS-injured mouse BV-2 cells assessed as decrease in IL-6 level at 5 uM by immunofluorescence staining based analysis. The test is classed as functional, cell-based.
For test [2], the system named is Mus musculus. Kind of test: Antiinflammatory activity Abeta1-42-induced against ICR mouse assessed as increase in TGF-beta1 level at 10 mg/kg, po in presence of presence of donepezil by ELISA analysis. In kind it is functional, organism-based. (An ELISA detects its analyte on a solid surface through an enzyme-linked reagent.)
Test [3] deals with T1, Nuclear factor erythroid 2-related factor 2 (Rattus norvegicus) (UniProt O54968).
T1 sequence (whole entry): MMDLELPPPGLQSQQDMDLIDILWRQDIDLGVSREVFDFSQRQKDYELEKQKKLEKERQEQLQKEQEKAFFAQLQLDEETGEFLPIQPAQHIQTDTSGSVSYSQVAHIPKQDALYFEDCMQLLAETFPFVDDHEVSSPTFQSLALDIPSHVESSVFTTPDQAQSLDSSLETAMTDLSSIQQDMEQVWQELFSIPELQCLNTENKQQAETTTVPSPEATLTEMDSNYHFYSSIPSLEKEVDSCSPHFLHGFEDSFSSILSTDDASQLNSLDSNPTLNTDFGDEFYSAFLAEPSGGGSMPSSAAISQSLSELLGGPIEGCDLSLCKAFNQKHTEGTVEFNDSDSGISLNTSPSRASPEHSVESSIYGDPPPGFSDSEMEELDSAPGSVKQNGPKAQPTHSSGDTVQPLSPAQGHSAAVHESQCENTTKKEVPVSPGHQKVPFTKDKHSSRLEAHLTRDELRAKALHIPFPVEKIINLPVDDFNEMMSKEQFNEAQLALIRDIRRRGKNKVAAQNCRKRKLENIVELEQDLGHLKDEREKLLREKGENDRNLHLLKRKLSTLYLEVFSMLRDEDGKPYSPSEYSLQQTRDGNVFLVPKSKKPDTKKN
Description: Activation of Nrf2 pathway in rat PC-12 cells assessed as fold increase in NQO1 expression level at 1 to 20 uM measured at 6 hrs by qRT-PCR analysis. The test is classed as cell-based. As to conditions: PC12, filed as activator, dose 1-20 µM. For orientation: Quantitative PCR measures a nucleic acid by following its amplification.

The next test concerns the target Cholinesterase (Equus caballus, UniProt P81908). Description: Inhibition of equine serum BuChE using ATC and BTC iodide as substrate preincubated for 5 mins followed by substrate addition and measured after 2 mins by DTNB reagent based assay.
The test system of test [4] is BV-2. Description: Neuroprotective activity against LPS-induced mouse BV-2 cells assessed as inhibition of ROS production at 1 to 40 uM preincubated for 1 hr followed by LPS stimulation and measured after 24 hrs by DCFH-DA staining based microplate reader anlaysis. The test is classed as functional, cell-based. As to conditions: dose 1-40 µM, time 25.0 hrs.
The target of test [5] is T1, Nuclear factor erythroid 2-related factor 2 (Rattus norvegicus). Kind of test: Activation of Nrf2 pathway in rat PC-12 cells assessed as increase in Nrf2 accumulation in nucleus at 20 uM measured after 1 to 5 hrs by Western blot analysis. In kind it is cell-based. As to conditions: PC12, filed as activator, time 1-5 hrs.
The test system of test [6] is Mus musculus. Description: Antialzheimer activity against scopolamine-induced cognitive impairment ICR mouse model assessed as confuse escape tracks at 3 mg/kg, po administered once a day for 10 days and measured after 5 to 10 days by Morris water maze test. The test is classed as functional, organism-based. As to conditions: time 5-10 day.
Test [7] relates to Mus musculus. Kind of test: Antialzheimer activity against scopolamine-induced cognitive impairment ICR mouse model assessed as distance to reach target at 3 mg/kg, po administered once a day for 10 days and measured after 5 to 10 days by Morris water maze test. In kind it is functional, organism-based. The conditions noted are these: time 5-10 day.
In test [8] the test system is Mus musculus. Kind of test: Antiinflammatory activity Abeta1-42-induced against ICR mouse assessed as increase in TGF-beta1 level at 20 mg/kg, po by ELISA analysis. In kind it is functional, organism-based.
In test [9] the target is T1, Nuclear factor erythroid 2-related factor 2 (Rattus norvegicus). Kind of test: Activation of Nrf2 pathway in rat PC-12 cells assessed as fold increase in GCLM expression level at 1 to 20 uM measured at 6 hrs by qRT-PCR analysis. The test is classed as cell-based. As to conditions: PC12, filed as activator, dose 1-20 µM.
A further test deals with SH-SY5Y. Description: Neuroprotective activity against Abeta1-42-induced human SH-SY5Y cells assessed as restoration of cell viability preinubated for 2 hrs followed by Abeta1-42 induction and measured after 24 hrs by MTT assay. The test is classed as functional, cell-based. As to conditions: time 26.0 hrs.

Active and inactive are the calls of the source. The calls are words filed in the database; no cut-off is given here.

In general, IC50 refers to the concentration at which inhibition is half-maximal. A higher IC50 goes with lower potency.

Chain of Cholinesterase (P81908 whole entry): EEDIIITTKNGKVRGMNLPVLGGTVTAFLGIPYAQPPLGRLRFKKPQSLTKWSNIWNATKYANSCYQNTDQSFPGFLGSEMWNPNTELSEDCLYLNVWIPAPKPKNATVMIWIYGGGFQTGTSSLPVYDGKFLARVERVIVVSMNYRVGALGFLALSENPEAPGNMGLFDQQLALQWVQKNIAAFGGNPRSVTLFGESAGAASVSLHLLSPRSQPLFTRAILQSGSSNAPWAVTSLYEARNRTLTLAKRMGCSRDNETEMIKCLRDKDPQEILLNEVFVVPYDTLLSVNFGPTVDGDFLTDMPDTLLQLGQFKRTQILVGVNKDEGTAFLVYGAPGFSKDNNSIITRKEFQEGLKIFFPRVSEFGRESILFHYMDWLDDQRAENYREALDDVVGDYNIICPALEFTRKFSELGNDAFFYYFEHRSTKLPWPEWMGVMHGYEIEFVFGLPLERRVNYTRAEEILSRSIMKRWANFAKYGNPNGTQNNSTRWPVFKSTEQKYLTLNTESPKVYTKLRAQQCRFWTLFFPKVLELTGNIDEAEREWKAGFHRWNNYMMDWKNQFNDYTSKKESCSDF

As to `Cc1ccc(-c2noc(-c3cccc(OCC4CCN(Cc5cccc(F)c5)CC4)c3)n2)cn1`, in the test on PC-12, the Activity entry was “Dose-Dependent Effect”. Besides, in the test on BV-2 [1], the outcome was inactive. In addition, the result (in the test on Mus musculus [2]; in the test with BV-2 [4]; in test [5]; with Mus musculus [6]; in the test on Mus musculus [7]; in the test on Mus musculus [8]) was Active. The result with SH-SY5Y was Active. In addition, the fold change (FC) in [3] and in [9] was 4 each time. This compound also registered an IC50 against Cholinesterase of 8.15 µM.
